Legend:
BRD4 (His-Brd4(44-477)) = BRD4 (His-Brd4(44-477)) (Homo sapiens (Human), UniProt O60885); test: TR-FRET in-vitro binding assay for BRD4; details: acetyl-histone H4 peptide
Protocol: All assays were performed in 384 well microtiter plates. Each assay plate contained 8-point serial dilutions for 40 test compounds, plus 16 high- and 16 low controls. Liquid handling and incubation steps were done on an Innovadyne Nanodrop Express equipped with a robotic arm (Thermo CatX, Perkin Elmer/Caliper Twister II) and an incubator (Liconic STX40, Thermo Cytomat 2C450). The assay plates were prepared by addition of 50 nl per well of compound solution in 90% DMSO HummingBird nanodispenser (Zinsser Analytic). […] Reactions were incubated at 30° C. for 35 minutes. […] After 35 minutes incubation at 30° C., plates were measured in a Perkin Elmer EnVision multilabel reader.
(§1) Test compounds were dissolved in DMSO (10 mM) and transferred into 1.4 mL flat bottom or V-shaped Matrix tubes carrying a unique 2D matrix. The stock solutions were stored at […] if not used immediately. For the test procedure the vials were defrosted and identified by a scanner whereby a working sheet was generated that guided the subsequent working steps. Compound dilutions were made in 96 well plates. This format enabled the assay of maximally 40 individual test compounds at 8 concentrations (single points) including 4 reference compounds, if desired (known BET inhibitors from the prior art, for this and other assays of the type disclosed herein). The dilution protocol included the production of “pre-dilution plates”, “master plates” and “assay plates”.
(§2) Pre-dilution plates: 96 polypropylene well plates were used as pre-dilution plates. A total of 4 pre-dilution plates were prepared including 10 test compounds each on the plate positions A1-A10, one standard compound at A11 and one DMSO control at A12. All dilution steps were done on a HamiltonSTAR robot. […] These plates were used directly for the assay which was performed in a total volume of 13.55 μL. […] Cell Growth Inhibition Assay

THP-1 cells = test: Cell growth inhibition assay (CellTiter-Glo), THP-1; type: cell-based, human; details: THP-1, 4 days; for GI50: Homo sapiens, 96 h, half-maximal growth inhibition; for THP-1 TGI: total growth inhibition
Protocol: The human leukemia cell lines MV-4-11, THP-1 and K-562 were employed to characterize the effect of BET inhibitors on cellular proliferation and viability. Cells were obtained from the American Type Culture Collection (ATCC) and cultured at 37° C. in a humidified 5% CO2 incubator in the following media: MV-4-11: DMEM high glucose (Animed #1-26F01-I), 10% FCS (Animed #2-01F26-I), 4 mM L-Glutamine (Animed #5-10K50), 1 mM Sodium Pyruvate (Animed # G03625P), 1× Penicillin-Streptomycin (Animed # F12478P); K-562: Iscove's MEM (Animed #1-28F16-I), 10% FCS (Animed #2-01F26-I), 4 mM L-Glutamine (Animed #5-10K50), 1× Penicillin-Streptomycin (Animed # F12478P); THP-1: RPMI-1640 (Animed #1-41F01-I), 10% FCS (Animed #2-01F26-I), 2 mM L-Glutamine (Animed #5-10K50), 10 mM HEPES (Animed #5-31F100), 1 mM Sodium Pyruvate (Animed # G03625P), 1× Penicillin-Streptomycin (Animed # F12478P). The AML lines MV-4-11 and THP-1 are very sensitive to BET inhibitors and show massive cell death upon BET inhibition (Zuber et al., Nature, 478 (2011), 524-8). Compound-mediated suppression of cell proliferation/viability was assessed by quantification of cellular ATP levels using the CellTiter-Glo (CTG) reagent (Promega). Briefly, cells were seeded in 20 μl fresh medium into 384-well plates, followed by addition of 5 μl medium containing compound dilutions at 5-fold their final intended concentration. Dose-response effects were assessed by 3-fold serial dilutions of the test compound, starting at 10 μM. Following incubation of the cells for 4 days at 37° C. and 5% CO2, the effect of inhibitors on cell viability was quantified following addition of 20 μl CTG and luminescence quantification (integration time: 100 ms) as per vendor manual, using a correspondingly equipped Tecan M200 multi-mode platereader (TECAN, Switzerland). For data analysis, the assay background value determined in wells containing medium, but no cells, was subtracted from all data points. To enable differentiation of cytotoxic from cytostatic compounds, the number of viable cells is assessed relative to that observed at the time of compound addition using a separate cell plate (day 0). The effect of a particular test compound concentration on cell proliferation/viability is expressed as percentage of the background- and day 0-corrected luminescence reading obtained for cells treated with vehicle only (DMSO, 0.1% final concentration), which is set as 100%, whereas that luminescence reading for wells containing medium is set as −100%. Compound concentrations leading to half-maximal (1050) and total growth inhibition (TGI) were determined using standard four parameter curve fitting.

[1] = target: CREBBP bromodomain (His-CREBBP (1081-1197)) (Homo sapiens (Human), UniProt Q92793); test: AlphaScreen in-vitro binding assay for CREBBP; details: acetyl-histone H4 peptide
Sequence of CREBBP bromodomain (His-CREBBP (1081-1197)) (Q92793 1081-1197): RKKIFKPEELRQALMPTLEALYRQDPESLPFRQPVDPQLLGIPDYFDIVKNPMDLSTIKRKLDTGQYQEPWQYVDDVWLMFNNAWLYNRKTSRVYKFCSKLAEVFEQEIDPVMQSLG
Protocol: In order to assess bromodomain selectivity, we set up a binding assay using the bromodomain encoded by the CREBBP gene. […] Reactions were incubated at 30° C. for 35 minutes. Subsequently 4.5 μl per well detection mix (50 mM HEPES, pH 7.5, 0.005% Tween20, 0.02% BSA, 150 mM NaCl, 45 μg/ml Ni-chelate acceptor beads, 45 μg/ml streptavidin-donor beads) (Perkin Elmer)) were added. After 60 minutes incubation at room temperature, plates were measured in a Perkin Elmer EnVision multilabel reader. IC50 values were determined from percent inhibition values at different compound concentrations by non-linear regression analysis.
as §1, §2

BRD4-NUT-fusion = BRD4-NUT-fusion (Homo sapiens (Human), UniProt O60885+Q86Y26); test: Nut-foci formation assay (HCS) in HCC2494 NUT midline carcinoma cells; type: cell-based; details: 24 hours, nuclear BRD4-NUT foci, immunofluorescence
Protocol: Compound-mediated inhibition of BRD4 activity was monitored by quantification of the number and intensity of nuclear BRD4-NUT foci using automated immunofluorescence microscopy. Briefly, 5000 cells in 20 μl fresh medium were seeded into Poly-D-Lysine-precoated 384-well plates and incubated overnight at 37° C. and 5% CO2, followed by addition of 5 μl medium containing compound dilutions at 5-fold their final intended concentration. Dose-response effects were assessed by 3-fold serial dilutions of the test compound, starting at 10 μM. […] Assay plates were imaged using the appropriate filter sets on the Cellomics VTi automated fluorescence microscopy platform (ThermoFisher Scientific) and the population average of the number of NUT-foci per nucleus is quantified using the Cellomics Spot Detection BioApplication image analysis algorithm (ThermoFisher Scientific). The effect of a particular test compound concentration on NUT-foci number and intensity is expressed as percentage of the value obtained for cells treated with vehicle only (DMSO, 0.1% final concentration), which was set as 100.

Structure (SMILES) | IC50 (BRD4 (His-Brd4(44-477))) [nM] | GI50 (THP-1 cells) [nM] | THP-1 TGI (THP-1 cells) [nM] | IC50 [1] [nM] | IC50 (BRD4-NUT-fusion) [nM]
COc1ncccc1-n1nc2c(c1C)C(=O)N(c1cc(C)c(=O)n(C)c1)C2c1ccc(Cl)cc1 (stereo not drawn) [Example 17b, 6-(4-chlorophenyl)-5-(1,5-dimethyl-6-oxo-1,6-dihydropyridin-3-yl)-2-(2-methoxypyridin-3-yl)-3-methyl-5,6-dihydropyrrolo[3,4-c]pyrazol-4(2H)-one] | 56 | 72.4 | 117 | 1300 | 40.3
Cc1cc(N2C(=O)c3c(C4CC4)nn(-c4ccnn4C)c3[C@H]2c2ccc(Cl)cc2)cn(C)c1=O [Example 22, (R)-6-(4-chlorophenyl)-3-cyclopropyl-5-(1,5-dimethyl-6-oxo-1,6-dihydropyridin-3-yl)-1-(1-methyl-1H-pyrazol-5-yl)-5,6-dihydropyrrolo[3,4-c]pyrazol-4(1H)-one] | 140 | 87.4 | 165 | 2900 | 
Cc1[nH]nc2c1C(=O)N(c1cc(Cl)c(=O)n(C)c1)[C@@H]2c1ccc(Cl)cc1 [Example 28, (R)-5-(5-chloro-1-methyl-6-oxo-1,6-dihydropyridin-3-yl)-6-(4-chlorophenyl)-3-methyl-5,6-dihydropyrrolo[3,4-c]pyrazol-4(2H)-one] | 160 | 110 | 201.5 | 2200 | 
COc1ccc(-n2nc(C)c3c2C(c2ccc(Cl)cc2)N(c2cc(C)c(=O)n(C)c2)C3=O)cc1 (stereo not drawn) [Example 13, 6-(4-chlorophenyl)-5-(1,5-dimethyl-6-oxo-1,6-dihydropyridin-3-yl)-1-(4-methoxyphenyl)-3-methyl-5,6-dihydropyrrolo[3,4-c]pyrazol-4(1H)-one] | 103 | 69.8 | 119 | 2200 | 
Cc1[nH]nc2c1C(=O)N(c1cc(Cl)c(=O)n(C)c1)C2c1ccc(Cl)cc1 (stereo not drawn) [Example 6, 5-(5-chloro-1-methyl-6-oxo-1,6-dihydropyridin-3-yl)-6-(4-chlorophenyl)-3-methyl-5,6-dihydropyrrolo[3,4-c]pyrazol-4(2H)-one] | 120 | 189 | 352 | 4100 | 108
COc1ncccc1-n1nc(C)c2c1[C@@H](c1ccc(Cl)cc1)N(c1cc(C)c(=O)n(C)c1)C2=O [Example 25, (R)-6-(4-chlorophenyl)-5-(1,5-dimethyl-6-oxo-1,6-dihydropyridin-3-yl)-1-(2-methoxypyridin-3-yl)-3-methyl-5,6-dihydropyrrolo[3,4-c]pyrazol-4(1H)-one] | 150 | 72.7 | 135.5 | 2000 | 
COc1ncc(-n2nc3c(c2C)C(=O)N(c2cc(C)c(=O)n(C)c2)C3c2ccc(Cl)cc2)c(OC)n1 (stereo not drawn) [Example 14, 6-(4-chlorophenyl)-2-(2,4-dimethoxypyrimidin-5-yl)-5-(1,5-dimethyl-6-oxo-1,6-dihydropyridin-3-yl)-3-methyl-5,6-dihydropyrrolo[3,4-c]pyrazol-4(2H)-one] | 100 | 219 | 352 | 5100 | 
Cc1cc(N2C(=O)c3c(C4CC4)nn(CCO)c3C2c2ccc(Cl)cc2)cn(C)c1=O (stereo not drawn) [Example 3, 6-(4-chlorophenyl)-3-cyclopropyl-5-(1,5-dimethyl-6-oxo-1,6-dihydropyridin-3-yl)-1-(2-hydroxyethyl)-5,6-dihydropyrrolo[3,4-c]pyrazol-4(1H)-one] | 43 | 90.1 | 264 |  | 49
COc1ncc(-n2nc3c(c2C)C(=O)N(c2cc(C)c(=O)n(C)c2)C3c2ccc(Cl)cc2)cn1 (stereo not drawn) [Example 21b, 6-(4-chlorophenyl)-5-(1,5-dimethyl-6-oxo-1,6-dihydropyridin-3-yl)-2-(2-methoxypyrimidin-5-yl)-3-methyl-5,6-dihydropyrrolo[3,4-c]pyrazol-4(2H)-one] | 110 | 209 | 396 | 4700 | 
COc1ncc(-n2nc(C)c3c2C(c2ccc(Cl)cc2)N(c2cc(C)c(=O)n(C)c2)C3=O)cn1 (stereo not drawn) [Example 21a, 6-(4-chlorophenyl)-5-(1,5-dimethyl-6-oxo-1,6-dihydropyridin-3-yl)-1-(2-methoxypyrimidin-5-yl)-3-methyl-5,6-dihydropyrrolo[3,4-c]pyrazol-4(1H)-one] | 71 | 166 | 331 | > 11100 | 
COc1ccc(-n2nc(C)c3c2C(c2ccc(Cl)cc2)N(c2cc(C)c(=O)n(C)c2)C3=O)cn1 (stereo not drawn) [Example 20b, 6-(4-chlorophenyl)-5-(1,5-dimethyl-6-oxo-1,6-dihydropyridin-3-yl)-1-(6-methoxypyridin-3-yl)-3-methyl-5,6-dihydropyrrolo[3,4-c]pyrazol-4(1H)-one] | 56 | 93.1 | 156 |  | 57.6
Cc1cc(N2C(=O)c3c(C4CC4)n[nH]c3[C@H]2c2ccc(Cl)cc2)cn(C)c1=O [Example 24, (R)-6-(4-chlorophenyl)-3-cyclopropyl-5-(1,5-dimethyl-6-oxo-1,6-dihydropyridin-3-yl)-5,6-dihydropyrrolo[3,4-c]pyrazol-4(1H)-one] | 73 | 29.7 | 62.25 | 1700 | 
COc1ncccc1-n1nc2c(c1C)C(=O)N(c1cc(C)c(=O)n(C)c1)[C@@H]2c1ccc(Cl)cc1 [Example 26, (R)-6-(4-chlorophenyl)-5-(1,5-dimethyl-6-oxo-1,6-dihydropyridin-3-yl)-2-(2-methoxypyridin-3-yl)-3-methyl-5,6-dihydropyrrolo[3,4-c]pyrazol-4(2H)-one] | 91 | 27.6 | 52.4 | 1000 | 
